Reference: patent US7300946B2, “N-(substituted arylmethyl)-4-(disubstituted methyl) piperidines and pyridines” (Bayer CropScience AG, priority 2002, dated 2007)

System: tobacco budworm (Heliothis virescens [Fabricius])
Assay: surface-treated diet test against the tobacco budworm
Format: in vivo
Settings: tobacco budworm second instar larvae, 0.25 millimoles of candidate insecticide on the surface of the diet, five-day exposure; for Percent Mortality: compared to total number of insects infested; for Percent Growth Inhibition: inhibition of insect weight relative to untreated controls
In short: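 Wheat germ artificial diet surface-treated with 40 µL of 50 mM DMSO stock diluted 1:7 in 1:1 water/acetone (0.25 millimolar on diet), or sub-multiples for rate tests. One second-instar larva per well, 25° C, 60% RH, 5 days; percent weight inhibition vs DMSO controls and percent mortality.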

| Structure (SMILES) | Percent Mortality (surface-treated diet) [%] | Percent Growth Inhibition (surface-treated diet) [%] | Percent Mortality [%] | Percent Growth Inhibition [%] |
| --- | --- | --- | --- | --- |
| Cn1nnc(-c2ccc(CN3CCC(C(NC(=O)c4ccc(I)cc4)c4ccc(OC(F)(F)F)cc4)CC3)cc2)n1 (centres unmarked) [Compound 329] | 50 | 99 | – | – |
| O=C(Nc1ccc(Cl)cc1)OC(c1ccc(C(F)(F)F)cc1)C1CCN(Cc2ccc(-c3ccccc3)cc2)CC1 (centres unmarked) [Compound 543] | 100 | 100 | – | – |
| C=CCOC(c1ccc(C(F)(F)F)cc1)C1CCN(Cc2ccc(Oc3ccccn3)cc2)CC1 (centres unmarked) [Compound 769] | – | – | 0 | 13 |
| O=C(Nc1cc(F)cc(F)c1)OC(C1=CCN(Cc2ccc(Oc3ncccn3)cc2)CC1)c1ccc(C(F)(F)F)cc1 (centres unmarked) [Compound 786, N-(3,5-difluorophenyl)({1-[(4-pyrimidin-2-yloxyphenyl)methyl](4-1,2,5,6-tetrahydropyridyl)}[4-(trifluoromethyl)phenyl]methoxy)carboxamide] | – | – | 100 | 100 |
| Cn1nnc(-c2ccc(CN3CCC(C(NC(=O)Nc4ccc(OC(F)(F)F)cc4)c4ccc(OC(F)(F)F)cc4)CC3)cc2)n1 (centres unmarked) [Compound 345] | 100 | 100 | – | – |
| Cn1nnc(-c2ccc(CN3CCC(C(OC(=O)Nc4ccc(Cl)cc4)c4ccc(Cl)cc4)CC3)cc2)n1 (centres unmarked) [Compound 264] | 100 | 100 | – | – |
| CCn1nnc(-c2ccc(CN3CCC(C(OC(=O)Nc4ccc(Cl)cc4)c4ccc(C(F)(F)F)cc4)CC3)cc2)n1 (centres unmarked) [Compound 265] | 100 | 100 | – | – |
| CCON=Cc1ccc(CN2CCC(C(OC(=O)Nc3cccc(F)c3)c3cc(Cl)cc(Cl)c3)CC2)cc1 (centres unmarked) [Compound 533] | 100 | 100 | – | – |
| C=CCOC(=O)Nc1ccc(CN2CCC(=C(c3ccc(C(F)(F)F)cc3)c3ccc(C(F)(F)F)cc3)CC2)cc1 [Compound 797] | – | – | 100 | 100 |
| CCn1nnc(-c2ccc(CN3CCC(C(OC(=O)Nc4ccc(Cl)c(Cl)c4)c4ccc(OC)cc4)CC3)cc2)n1 (centres unmarked) [Compound 602] | 100 | 100 | – | – |
| Cn1nnc(-c2ccc(CN3CCC(C(OC(=O)Nc4ccc(Cl)cc4)c4ccc(OC(F)(F)F)cc4)CC3)cc2)n1 (centres unmarked) [Compound 266] | 100 | 100 | – | – |
| O=C(Nc1ccc(Cl)cc1)OC(c1ccc(C(F)(F)F)cc1)C1CC[N+]([O-])(Cc2ccc(Oc3ccc(Cl)nn3)cc2)CC1 (centres unmarked) [Compound 767] | – | – | 100 | 100 |
| CNC(=O)Oc1ccc(C[N+]2([O-])CCC(=C(c3ccc(C(F)(F)F)cc3)c3ccc(C(F)(F)F)cc3)CC2)cc1 (centres unmarked) [Compound 828] | – | – | 100 | 100 |
| CCn1nnc(-c2ccc(CN3CCC(=C(c4ccc(Cl)cc4)c4ccc(Cl)cc4)CC3)cc2)n1 [Compound 77] | 100 | 100 | – | – |
| O=C(Nc1ccc(F)cc1)OC(c1ccc(C(F)(F)F)cc1)C1CCN(Cc2ccc(-n3cncn3)cc2)CC1 (centres unmarked) [Compound 557] | 0 | 86 | – | – |
| O=C(Nc1cc(F)cc(F)c1)OC(c1ccc(C(F)(F)F)cc1)C1CC[N+]([O-])(Cc2ccc(Oc3ccccc3)cc2)CC1 (centres unmarked) [Compound 749] | – | – | 100 | 100 |
| O=C(Nc1ccc(Cl)cc1)OC(c1cccc(C(F)(F)F)c1)C1CCN(Cc2ccc(Oc3ccccn3)cc2)CC1 (centres unmarked) [Compound 652] | 100 | 100 | – | – |
| O=C(Nc1ccc(Cl)cc1)OC(c1ccc(C(F)(F)F)cc1)C1CC[N+]([O-])(Cc2ccc(Oc3ccccn3)cc2)CC1 (centres unmarked) [Compound 395, N-(4-chlorophenyl)({1-[(4-(2-pyridyloxy)phenyl)methyl](4-(1-oxypiperidyl))}[4-(trifluoromethyl)phenyl]methoxy)carboxamide] | 100 | 100 | – | – |
| O=C(Nc1cccc(Cl)c1Cl)OC(c1ccc(C(F)(F)F)cc1)C1CCN(Cc2ccc(Oc3ccccn3)cc2)CC1 (centres unmarked) [Compound 228] | 100 | 100 | – | – |
| CCn1nnc(-c2ccc(CN3CCC(C(OC(=O)Nc4ccc(Cl)cc4)c4ccc(OC)cc4)CC3)cc2)n1 (centres unmarked) [Compound 601] | 100 | 100 | – | – |
| CCn1nnc(-c2ccc(CN3CCC(C(OC(=O)Nc4ccc(C(F)(F)F)cc4)c4ccc(-c5ccccc5)cc4)CC3)cc2)n1 (centres unmarked) [Compound 615] | 17 | 72 | – | – |
| CCn1nnc(-c2ccc(CN3CCC(=C(c4ccc(F)cc4)c4ccc(F)cc4)CC3)cc2)n1 [Compound 78] | 67 | 100 | – | – |
| Cn1nnc(-c2ccc(CN3CCC(C(NC(=O)c4ccc(OC(F)(F)F)cc4)c4ccc(OC(F)(F)F)cc4)CC3)cc2)n1 (centres unmarked) [Compound 332] | 100 | 100 | – | – |

| Structure (SMILES) | Percent Mortality (surface-treated diet) [%] | Percent Growth Inhibition (surface-treated diet) [%] | Percent Mortality [%] | Percent Growth Inhibition [%] |
| --- | --- | --- | --- | --- |
| O=C(Nc1ccc(OC(F)(F)F)cc1)OC(c1ccc(C(F)(F)F)cc1)C1CCN(Cc2ccc(Oc3ccccn3)cc2)CC1 (centres unmarked) [Compound 249] | 100 | 100 | – | – |
| O=C(Nc1cc(F)cc(F)c1)OC(c1ccc(C(F)(F)F)cc1)C1CCN(Cc2ccc(-n3cncn3)cc2)CC1 (centres unmarked) [Compound 558] | 17 | 99 | – | – |
| N#Cc1ccc(NC(=O)OC(c2ccc(C(F)(F)F)cc2)C2CCN(Cc3ccc(Oc4ccccn4)cc3)CC2)cc1 (centres unmarked) [Compound 704] | – | – | 100 | 100 |
| CNC(=O)Oc1ccc(C[N+]2([O-])CCC(=C(c3ccc(OC(F)(F)F)cc3)c3ccc(OC(F)(F)F)cc3)CC2)cc1 (centres unmarked) [Compound 829] | – | – | 100 | 100 |
| CCn1nnc(-c2ccc(CN3CCC(C(OC(=O)Nc4ccc(F)c(F)c4)c4cc(Cl)cc(Cl)c4)CC3)cc2)n1 (centres unmarked) [Compound 579] | 100 | 100 | – | – |
| CCn1nnc(-c2ccc(CN3CCC(C(OC(=O)c4ccc(C(F)(F)F)cc4)c4ccc(OC(F)(F)F)cc4)CC3)cc2)n1 (centres unmarked) [Compound 307] | 100 | 92 | – | – |
| O=C(Nc1ccc(Cl)cc1)OC(c1ccc(C(F)(F)F)cc1)C1CCN(Cc2ccc(Oc3ncccn3)cc2)CC1 (centres unmarked) [Compound 729] | – | – | 100 | 100 |
| CCn1nnc(-c2ccc(CN3CCC(C(OC(=O)Nc4ccc(OC(F)(F)F)cc4)c4ccc(OC(F)(F)F)cc4)CC3)cc2)n1 (centres unmarked) [Compound 295] | 100 | 92 | – | – |
| FC(F)(F)c1ccc(C(=C2CCN(Cc3ccc(Nc4ncccn4)nc3)CC2)c2ccc(C(F)(F)F)cc2)cc1 [Compound 859] | – | – | 0 | 46 |
| CCCOc1ccc(CN2CCC(C(OC(=O)Nc3ccc(F)cc3)c3ccc(Cl)c(Cl)c3)CC2)cc1 (centres unmarked) [Compound 481] | 100 | 100 | – | – |
| CCn1nnc(-c2ccc(CN3CCC(C(OC(=O)Nc4ccc(Cl)c(C(F)(F)F)c4)c4ccc(C(F)(F)F)cc4)CC3)cc2)n1 (centres unmarked) [Compound 292] | 100 | 100 | – | – |
| Cc1ccc(S(=O)(=O)NC(=O)OC(c2ccc(C(F)(F)F)cc2)C2CCN(Cc3ccc(Oc4ccccn4)cc3)CC2)cc1 (centres unmarked) [Compound 696] | 0 | 32 | – | – |
| Cn1nnc(-c2ccc(CN3CCC(C(OC(=O)Nc4ccc(C(F)(F)F)cc4)c4ccc(OC(F)(F)F)cc4)CC3)cc2)n1 (centres unmarked) [Compound 290] | 100 | 100 | – | – |
| CC(=O)Nc1ccc(CN2CCC(C(OC(=O)Nc3cc(F)cc(F)c3)c3ccc(C(F)(F)F)cc3)CC2)cc1 (centres unmarked) [Compound 495] | 0 | 98 | – | – |
| CCn1nnc(-c2ccc(CN3CCC(C(OC(=O)Nc4cc(F)cc(F)c4)c4ccc(OC)c(OC)c4)CC3)cc2)n1 (centres unmarked) [Compound 609] | 33 | 100 | – | – |
| O=C(Nc1ccc(Cl)cc1)OC(c1ccc(OC(F)(F)F)cc1)C1CCN(Cc2ccc(Oc3cccc[n+]3[O-])cc2)CC1 (centres unmarked) [Compound 706] | – | – | 100 | 100 |
| Cn1nnc(-c2ccc(CN3CCC(C(NCc4cccc(Cl)c4)c4ccc(OC(F)(F)F)cc4)CC3)cc2)n1 (centres unmarked) [Compound 310] | 100 | 100 | – | – |
| CNC(=O)Oc1ccc(C[N+]2([O-])CCC(=C(c3ccc(Cl)cc3)c3ccc(Cl)cc3)CC2)cc1 (centres unmarked) [Compound 827] | – | – | 100 | 100 |
| Cn1nnc(-c2ccc(CN3CCC(C(OC(=O)Nc4ccc(OC(F)(F)F)cc4)c4ccc(OC(F)(F)F)cc4)CC3)cc2)n1 (centres unmarked) [Compound 294] | 100 | 100 | – | – |
| Cn1nnc(-c2ccc(CN3CCC(C(NCc4cccc(F)c4)c4ccc(OC(F)(F)F)cc4)CC3)cc2)n1 (centres unmarked) [Compound 314] | 100 | 100 | – | – |
| CCON=Cc1ccc(CN2CCC(C(OC(=O)Nc3ccc(Cl)cc3)c3ccc(Cl)cc3)CC2)cc1 (centres unmarked) [Compound 523] | 100 | 100 | – | – |
| CC(C)OC(=O)Nc1ccc(CN2CCC(C(OC(=O)Nc3cc(F)cc(F)c3)c3ccc(C(F)(F)F)cc3)CC2)cc1 (centres unmarked) [Compound 512] | 100 | 100 | – | – |
| O=C(Nc1cc(F)cc(F)c1)OC(c1ccc(C(F)(F)F)cc1)C1CCN(Cc2ccc(Oc3cccnn3)cc2)CC1 (centres unmarked) [Compound 736] | – | – | 100 | 100 |
